# Calls of active or inactive are those of the source. The calls are words filed in the database; no cut-off is given here.
# How the values were obtained:
# [1] = Acute toxicity in BALB/c nude mouse assessed as liver damage at 200 mg/kg, po administered twice daily for 4 weeks by H and E staining based optical microscopic analysis; assay type: organism-based; conditions: in vivo, 672 h
# HCT-116 [2] = assay: Antiproliferative activity against human HCT116 cells assessed as reduction in cell viability incubated for 72 hrs by MTT assay; assay type: functional, cell-based; conditions: HCT-116, 72 h
# MDA-MB-436 = assay: Antiproliferative activity against human MDA-MB-436 cells assessed as reduction in cell viability incubated for 72 hrs by MTT assay; assay type: functional, cell-based; conditions: MDA-MB-436, 72 h
# HCT-116 [3] = assay: Inhibition of clone formation in human HCT-116 cells at 0.1 to 2 microM incubated for 14 days by crystal violet staining based assay; assay type: functional, cell-based; conditions: dose 0.1-2 µM, time 14.0 day
# HCT-116 [4] = assay: Induction of ROS generation in human HCT-116 cells at 500 nM preincubated for 1 hr with NAC followed by compound addition by measured after 3 hrs DCFH-DA dye based flow cytometric analysis; assay type: functional, cell-based
# [5] = Distribution coefficient, logD of the compound at pH 7.4 by LC-MS based shake-flask method; assay type: physicochemical; conditions: octanol/water, read-out: logD
# [6] = Metabolic stability in human plasma assessed as compound remaining after 2 hrs by LC-MS/MS analysis; assay type: ADME, cell-free; conditions: read-out: Stability
# [7] = Metabolic stability in human liver microsomes assessed as half life at 10 uM preincubated for 5 mins followed by NADPH addition by LC-MS/MS analysis; assay type: ADME, Microsome
# [8] = Metabolic stability in human liver microsomes assessed as clearance at 10 uM preincubated for 5 mins followed by NADPH addition by LC-MS/MS analysis; assay type: ADME, Microsome; conditions: read-out: CLH
# [9] = Metabolic stability in mouse liver microsomes assessed as half life at 10 uM preincubated for 5 mins followed by NADPH addition by LC-MS/MS analysis; assay type: ADME, Microsome
# [10] = Metabolic stability in mouse liver microsomes assessed as clearance at 10 uM preincubated for 5 mins followed by NADPH addition by LC-MS/MS analysis; assay type: ADME, Microsome; conditions: read-out: CLH
# [11] = Half life in Sprague-Dawley rat at 5 mg/kg, iv measured upto 72 hrs by LC-MS/MS analysis; assay type: ADME, organism-based; conditions: in vivo
# [12] = AUC(0 to t) in Sprague-Dawley rat at 5 mg/kg, iv measured upto 72 hrs by LC-MS/MS analysis; assay type: ADME, organism-based; design: route intravenous, dose 5 mg/kg, time <=72; conditions: in vivo
# [13] = AUC(0 to t) in Sprague-Dawley rat at 200 mg/kg, po measured upto 72 hrs by LC-MS/MS analysis; assay type: ADME, organism-based; design: route oral, dose 200 mg/kg, time <=72; conditions: in vivo
# [14] = AUC(0 to infinity) in Sprague-Dawley rat at 5 mg/kg, iv measured upto 72 hrs by LC-MS/MS analysis; assay type: ADME, organism-based; design: route intravenous, dose 5 mg/kg, time <=72; conditions: Sprague-Dawley, in vivo
# [15] = Clearance in Sprague-Dawley rat at 5 mg/kg, iv measured upto 72 hrs by LC-MS/MS analysis; assay type: ADME, organism-based; conditions: Sprague-Dawley, in vivo
# [16] = Clearance in Sprague-Dawley rat at 200 mg/kg, po measured upto 72 hrs by LC-MS/MS analysis; assay type: ADME, organism-based; conditions: in vivo, 200 mg/kg, 72 h
# [17] = Apparent volume of distribution in Sprague-Dawley rat at 5 mg/kg, iv measured upto 72 hrs by LC-MS/MS analysis; assay type: ADME, organism-based; conditions: in vivo, read-out: Vz
# [18] = Apparent volume of distribution in Sprague-Dawley rat at 200 mg/kg, po measured upto 72 hrs by LC-MS/MS analysis; assay type: ADME, organism-based; conditions: in vivo
# [19] = Oral bioavailability in Sprague-Dawley rat at 200 mg/kg measured upto 72 hrs by LC-MS/MS analysis; assay type: ADME, organism-based; conditions: in vivo
# HCT-116 [20] = assay: Antineoplastic activity against human HCT-116 cells xenografted in po dosed BALB/c nude mouse administered twice daily measured after 28 days; assay type: functional, organism-based; conditions: dose 200.0 mg/kg, time 28.0 day
# [21] = Toxicity in BALB/c nude mouse xenografted with human HCT-116 cells assessed as body weight loss at 200 mg/kg, po administered twice daily for 28 days and measured every 3 days; assay type: organism-based; conditions: in vivo, 672 h, time 28 day
# HCT-116 [22] = assay: Antitumor activity against human HCT-116 cells xenografted in BALB/c nude mouse assessed as tumor destruction at 200 mg/kg, po administered twice daily measured after 28 days by H and E staining based optical microscopic method; assay type: functional, organism-based; conditions: time 28.0 day
# HCT-116 [23] = assay: Antitumor activity against human HCT-116 cells xenografted in BALB/c nude mouse assessed as karyorrhexis at 200 mg/kg, po administered twice daily measured after 28 days by H and E staining based optical microscopic method; assay type: functional, organism-based; conditions: time 28.0 day
# [24] = Cmax in BALB/c nude mouse plasma xenografted with human HCT-116 cells at 200 mg/kg, po administered twice daily for 28 days; assay type: ADME, organism-based; design: route oral, time 28 day, dose 200 mg/kg
# [25] = fCmax in BALB/c nude mouse plasma xenografted with human HCT-116 cells at 200 mg/kg, po administered twice daily for 28 days; assay type: ADME, organism-based; conditions: in vivo, 672 h, time 28 day
# [26] = Acute toxicity in BALB/c nude mouse assessed as spleen damage at 200 mg/kg, po administered twice daily for 4 weeks by H and E staining based optical microscopic analysis; assay type: organism-based; conditions: in vivo, 672 h
# [27] = Acute toxicity in BALB/c nude mouse assessed as lung damage at 200 mg/kg, po administered twice daily for 4 weeks by H and E staining based optical microscopic analysis; assay type: organism-based; conditions: in vivo, 672 h
# Mus musculus = assay: Induction of ROS generation in BALB/c mouse xenografted with human HCT-116 cells at 200 mg/kg, po; assay type: functional, organism-based
# [28] = molecular target: T1, Glutaminase kidney isoform, mitochondrial (Mus musculus) (UniProt D3Z7P3); assay: In vivo inhibition of GLS1 in BALB/c mouse xenografted with human HCT-116 cells assessed as reduction in glutamate level at 200 mg/kg, po; assay type: functional, organism-based
# T1 sequence (whole entry): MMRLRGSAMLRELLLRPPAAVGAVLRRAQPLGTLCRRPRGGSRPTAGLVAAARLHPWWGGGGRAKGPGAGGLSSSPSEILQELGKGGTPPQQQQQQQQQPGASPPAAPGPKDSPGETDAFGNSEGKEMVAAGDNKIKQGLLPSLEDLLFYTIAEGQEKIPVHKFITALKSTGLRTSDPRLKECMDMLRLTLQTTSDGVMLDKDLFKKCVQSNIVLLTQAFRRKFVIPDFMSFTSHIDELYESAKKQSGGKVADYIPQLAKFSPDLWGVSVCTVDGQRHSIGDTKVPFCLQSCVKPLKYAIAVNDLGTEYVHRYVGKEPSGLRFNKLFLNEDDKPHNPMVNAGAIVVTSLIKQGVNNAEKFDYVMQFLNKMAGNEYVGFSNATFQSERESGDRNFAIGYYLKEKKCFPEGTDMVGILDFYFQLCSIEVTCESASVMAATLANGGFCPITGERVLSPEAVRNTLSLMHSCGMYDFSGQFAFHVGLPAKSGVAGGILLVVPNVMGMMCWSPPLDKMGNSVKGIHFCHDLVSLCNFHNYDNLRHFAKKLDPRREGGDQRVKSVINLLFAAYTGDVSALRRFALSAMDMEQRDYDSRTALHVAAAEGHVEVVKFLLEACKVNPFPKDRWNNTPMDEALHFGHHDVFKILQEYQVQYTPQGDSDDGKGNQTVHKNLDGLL
# [29] = molecular target: T1, Glutaminase kidney isoform, mitochondrial (Mus musculus); assay: In vivo inhibition of GLS1 in BALB/c mouse xenografted with human HCT-116 cells assessed as reduction in glutathione level at 200 mg/kg, po; assay type: functional, organism-based
smiles,measurement,setting,value
O=C1Cc2cccc(c2)OCC/C=C/CCOc2cccc(c2)CC(=O)Nc2nnc(s2)CCCCc2ccc(nn2)N1,Activity,[1],Non-Toxic
same,IC50,HCT-116 [2],80 nM
same,IC50,MDA-MB-436,340 nM
same,inhibition,HCT-116 [3],Active
same,Activity,HCT-116 [4],inactive
same,logD,[5],3.13
same,remaining at 2 h,[6],92%
same,half-life at 10 µM,[7],2.72 h
same,microsomal CLint at 10 µM,[8],3.2 µL/min/mg
same,half-life at 10 µM,[9],1.7 h
same,microsomal CLint at 10 µM,[10],7.6 µL/min/mg
same,half-life,[11],6.3 h
same,AUC(0-t) at 72 h,[12],1630 ng·h/mL
same,AUC(0-t) at 72 h,[13],5920 ng·h/mL
same,AUC(0-inf),[14],1670 ng·h/mL
same,clearance,[15],53.3 mL/min/kg
same,CL,[16],61.7 mL/min/kg
same,Vd,[17],19.7 L/kg
same,Vz,[18],58.6 L/kg
same,bioavailability,[19],9%
same,Activity,HCT-116 [20],Dose-Dependent Effect
same,Activity,[21],Non-Toxic
same,Activity,HCT-116 [22],Active
same,Activity,HCT-116 [23],Active
same,Cmax,[24],1630 nM
same,fCmax,[25],0.21 µM
same,Activity,[26],Non-Toxic
same,Activity,[27],Non-Toxic
same,Activity,Mus musculus,Active
same,inhibition,[28],Active
same,inhibition,[29],Active
